From ChEMBL document CHEMBL5034028, “Design, synthesis and biological evaluation of tyrosinase-targeting PROTACs” (Eur J Med Chem, 2021)
Values after ≈ are worked out from the molar mass of the structure shown. Active and inactive are the calls of the source. The rule behind the calls is not given here.

Experiments:
[1] = target: T1, Protein cereblon/Tyrosinase (Homo sapiens) (UniProt P14679+Q96SW2); experiment: Protac activity at CRBN E3 ubiquitin ligase/tyrosinase in human A375 cells assessed as induction of tyrosinase degradation at 50 uM measured after 24 hrs by immunoblotting analysis relative to control; format: cell-based; details: A-375
T1 sequence (Q96SW2 whole entry, looked up, one chain of several): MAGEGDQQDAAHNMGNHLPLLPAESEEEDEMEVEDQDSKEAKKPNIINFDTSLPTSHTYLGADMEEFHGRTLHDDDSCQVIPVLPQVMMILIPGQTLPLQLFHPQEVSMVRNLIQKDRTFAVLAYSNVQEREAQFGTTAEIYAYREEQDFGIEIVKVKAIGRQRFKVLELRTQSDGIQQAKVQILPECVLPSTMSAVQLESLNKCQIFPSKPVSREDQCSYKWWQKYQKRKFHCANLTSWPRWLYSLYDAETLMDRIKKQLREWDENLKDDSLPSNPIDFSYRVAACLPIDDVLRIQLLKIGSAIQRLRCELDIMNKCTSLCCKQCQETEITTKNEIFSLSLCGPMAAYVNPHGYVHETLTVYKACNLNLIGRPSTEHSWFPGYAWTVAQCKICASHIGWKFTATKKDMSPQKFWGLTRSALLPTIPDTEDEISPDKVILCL

Danio rerio [2] = species on record: Danio rerio; experiment: Inhibition of melanin production in zebra fish assessed depigmentation effect at 25 to 100 uM measured 96 hrs post fertilization relative to control; format: functional; design: scale not given: the % may be the effect or the level left; details: dose 25-100 µM
[3] = target: T1, Protein cereblon/Tyrosinase (Homo sapiens); experiment: Protac activity at CRBN E3 ubiquitin ligase/tyrosinase in human A-375 cells assessed as induction of tyrosinase degradation at 50 uM measured after 24 hrs by immunoblotting analysis; format: cell-based
[4] = target: T1, Protein cereblon/Tyrosinase (Homo sapiens); experiment: Protac activity at CRBN E3 ubiquitin ligase/tyrosinase in human A-375 cells assessed as induction of tyrosinase degradation measured after 24 hrs by immunoblotting analysis; format: cell-based
[5] = target: T1, Protein cereblon/Tyrosinase (Homo sapiens); experiment: Protac activity at CRBN E3 ubiquitin ligase/tyrosinase in human A-375 cells assessed as induction of tyrosinase degradation by measuring maximum degradation at 100 uM measured after 24 hrs by immunoblotting analysis relative to control; format: cell-based
[6] = target: T1, Protein cereblon/Tyrosinase (Homo sapiens); experiment: Protac activity at CRBN E3 ubiquitin ligase/tyrosinase in human A-375 cells assessed as induction of tyrosinase degradation at 100 uM measured up to 48 hrs by immunoblotting analysis; format: cell-based; details: time hrs <=48, TDE = time-dependent effect
Tyrosinase = target: T2, Tyrosinase (Homo sapiens, UniProt P14679); experiment: Inhibition of human tyrosinase
T2 sequence (P14679 whole entry): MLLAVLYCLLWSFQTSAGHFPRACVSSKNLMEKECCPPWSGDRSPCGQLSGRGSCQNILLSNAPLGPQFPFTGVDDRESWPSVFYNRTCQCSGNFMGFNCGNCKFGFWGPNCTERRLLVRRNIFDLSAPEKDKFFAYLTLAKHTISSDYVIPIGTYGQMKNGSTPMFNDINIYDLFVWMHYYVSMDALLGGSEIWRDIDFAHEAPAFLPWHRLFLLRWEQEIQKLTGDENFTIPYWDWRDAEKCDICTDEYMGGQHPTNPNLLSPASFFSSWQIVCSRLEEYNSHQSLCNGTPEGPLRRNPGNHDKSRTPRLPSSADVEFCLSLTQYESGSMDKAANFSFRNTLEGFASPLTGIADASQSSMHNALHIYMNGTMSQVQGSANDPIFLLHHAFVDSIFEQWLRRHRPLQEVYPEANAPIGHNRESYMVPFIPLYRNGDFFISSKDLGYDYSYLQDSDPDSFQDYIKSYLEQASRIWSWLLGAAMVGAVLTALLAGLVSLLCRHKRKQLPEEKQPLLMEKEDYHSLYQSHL

A-375 [7] = experiment: Cytotoxicity against human A-375 cells assessed as reduction in cell viability at up to 400 uM measured after 72 hrs by CCK8 assay; format: cell-based; details: a-375, 72 h
HEK293 = experiment: Cytotoxicity against HEK293 cells assessed as reduction in cell viability at up to 400 uM measured after 72 hrs by CCK8 assay; format: cell-based; details: human, hek293, 72 h
[8] = target: D(1A) dopamine receptor (Homo sapiens) (UniProt P21728); experiment: Induction of degradation in dopamine receptor D1 in human A-375 cells at 100 uM measured after 24 hrs by immunoblotting analysis; format: cell-based
Sequence of D(1A) dopamine receptor (Homo sapiens) (P21728 whole entry): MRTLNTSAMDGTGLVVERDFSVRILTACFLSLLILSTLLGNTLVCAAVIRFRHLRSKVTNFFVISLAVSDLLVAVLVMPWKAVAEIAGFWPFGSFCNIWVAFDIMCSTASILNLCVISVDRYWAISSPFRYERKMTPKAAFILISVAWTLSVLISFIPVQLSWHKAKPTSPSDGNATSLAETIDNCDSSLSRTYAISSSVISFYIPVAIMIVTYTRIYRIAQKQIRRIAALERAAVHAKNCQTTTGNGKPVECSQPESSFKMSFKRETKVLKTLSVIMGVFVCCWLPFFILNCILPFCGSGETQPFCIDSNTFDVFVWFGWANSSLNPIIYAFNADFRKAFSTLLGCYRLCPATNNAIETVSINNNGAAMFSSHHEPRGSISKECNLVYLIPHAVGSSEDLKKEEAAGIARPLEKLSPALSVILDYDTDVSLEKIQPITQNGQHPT

[9] = target: Adrenergic receptor alpha-1 (Homo sapiens) (UniProt P35348+P25100+P35368); experiment: Induction of degradation in adrenergic receptor alpha1 in human A-375 cells at 100 uM measured after 24 hrs by immunoblotting analysis; format: cell-based
[10] = target: Beta-1 adrenergic receptor (Homo sapiens) (UniProt P08588); experiment: Induction of degradation in adrenergic receptor beta1 in human A-375 cells at 100 uM measured after 24 hrs by immunoblotting analysis; format: cell-based
Sequence of Beta-1 adrenergic receptor (Homo sapiens) (P08588 whole entry, looked up): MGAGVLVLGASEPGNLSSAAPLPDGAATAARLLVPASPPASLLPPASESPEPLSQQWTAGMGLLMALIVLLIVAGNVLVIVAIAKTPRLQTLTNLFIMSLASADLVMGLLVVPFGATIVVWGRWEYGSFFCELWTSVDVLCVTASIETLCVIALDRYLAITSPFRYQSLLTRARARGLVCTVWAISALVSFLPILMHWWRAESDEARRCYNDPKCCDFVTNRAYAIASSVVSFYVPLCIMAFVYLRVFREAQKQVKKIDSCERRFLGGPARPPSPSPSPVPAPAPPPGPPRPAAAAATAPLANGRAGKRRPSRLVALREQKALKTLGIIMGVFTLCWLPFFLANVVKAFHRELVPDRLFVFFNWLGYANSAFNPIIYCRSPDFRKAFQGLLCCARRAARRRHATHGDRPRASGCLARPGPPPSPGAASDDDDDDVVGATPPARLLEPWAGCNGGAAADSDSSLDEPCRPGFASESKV

A-375 [11] = experiment: Inhibition of melanin production in human A-375 cells assessed reduction in melanin level measured after 24 hrs by UV-visible absorption spectrophotometric method; format: functional, cell-based
[12] = Toxicity in zebrafish embryo assessed as effect on morphology at 25 to 100 uM measured 48 hrs post fertilization; format: tissue-based, Danio rerio; details: in vivo, dose 25-100 µM
[13] = target: T3, Tyrosinase (Homo sapiens) (UniProt P14679); experiment: Induction of human tyrosinase degradation in human A-375 cells assessed as downregulation of tyrosinase at 100 uM pretreated with proteasome inhibitor, MG132 for 30 mins followed by compound addition and measured after 24 hrs by immunoblotting analysis; format: cell-based
T3 sequence (whole entry): T2 sequence (P14679 whole entry)

[14] = target: T3, Tyrosinase (Homo sapiens); experiment: Induction of human tyrosinase degradation in human A-375 cells assessed as downregulation of tyrosinase at 100 uM pretreated with ubiquitin activating enzyme inhibitor […] for 30 mins followed by compound addition and measured after 24 hrs by immunoblotting analysis; format: cell-based
[15] = Aqueous solubility of compound; format: physicochemical; details: aqueous (not further specified)
[16] = n-Octanol/water partition coefficient, logD of the compound; format: physicochemical
[17] = Cytotoxicity against human A-375 cells assessed as reduction in cell viability measured after 72 hrs by CCK8 assay; format: cell-based
[18] = Cytotoxicity against HEK293 cells assessed as reduction in cell viability measured after 72 hrs by CCK8 assay; format: cell-based; details: human
A-375 [19] = experiment: Inhibition of melanin production in human A-375 cells assessed depigmentation ability at 0 to 100 uM measured after 24 hrs by UV-visible absorption spectrophotometric method relative to 100 uM kojic acid; format: functional; details: dose 0-100 µM
A-375 [20] = experiment: Inhibition of melanin production in human A-375 cells assessed depigmentation ability at 0 to 100 uM measured after 24 hrs by UV-visible absorption spectrophotometric method relative to 100 uM L-Dopa; format: functional; details: dose 0-100 µM
[21] = Toxicity in zebrafish embryo assessed as effect on respiration at 25 to 100 uM measured 48 hrs post fertilization; design: species or system Danio rerio; details: in vivo, dose 25-100 µM
Danio rerio [22] = species on record: Danio rerio; experiment: Inhibition of melanin production in zebra fish assessed reduction in melanin level in back at 25 to 100 uM measured 48 hrs post fertilization; format: functional, organism-based; details: dose 25-100 µM
Danio rerio [23] = species on record: Danio rerio; experiment: Inhibition of melanin production in zebra fish assessed reduction in melanin level in eyes at 25 to 100 uM measured 48 hrs post fertilization; format: functional, organism-based; details: dose 25-100 µM
Danio rerio [24] = species on record: Danio rerio; experiment: Inhibition of melanin production in zebra fish assessed reduction in melanin level in abdomen at 25 to 100 uM measured 48 hrs post fertilization; format: functional, organism-based; details: dose 25-100 µM
Danio rerio [25] = species on record: Danio rerio; experiment: Inhibition of melanin production in zebra fish assessed reduction in melanin level in tail at 25 to 100 uM measured 48 hrs post fertilization; format: functional, organism-based; details: dose 25-100 µM
Danio rerio [26] = species on record: Danio rerio; experiment: Inhibition of melanin production in zebra fish assessed reduction in melanin level in eyes at 25 to 100 uM measured 48 hrs post fertilization relative to 100 uM kojic acid; format: functional; details: dose 25-100 µM
Danio rerio [27] = species on record: Danio rerio; experiment: Inhibition of melanin production in zebra fish assessed reduction in melanin level in eyes at 25 to 100 uM measured 48 hrs post fertilization relative to 100 uM L-Dopa; format: functional; details: dose 25-100 µM
[28] = target: T1, Protein cereblon/Tyrosinase (Homo sapiens); experiment: Protac activity at CRBN E3 ubiquitin ligase/tyrosinase in human A-375 cells assessed as induction of tyrosinase degradation at 100 uM measured after 24 hrs by immunoblotting analysis; format: cell-based
A-375 [29] = experiment: Inhibition of melanin production in human A-375 cells assessed reduction in melanin level at 100 uM measured after 24 hrs by UV-visible absorption spectrophotometric method; format: functional, cell-based
Mushroom tyrosinase = Mushroom tyrosinase (Agaricus bisporus, UniProt O42713+Q00024+C7FF04+C7FF05); experiment: Binding affinity to mushroom tyrosinase assessed as dissociation constant
Danio rerio [30] = species on record: Danio rerio; experiment: Inhibition of melanin production in zebra fish assessed depigmentation effect at 100 uM measured 96 hrs post fertilization; format: functional, organism-based

N[C@@H](Cc1ccc(O)c(O)c1)C(=O)NCCNc1cccc2c1C(=O)N(C1CCC(=O)NC1=O)C2=O (some centres not stated)
Activity [1]: 14%

N[C@@H](Cc1ccc(O)c(O)c1)C(=O)NCCCCCNc1cccc2c1C(=O)N(C1CCC(=O)NC1=O)C2=O (some centres not stated)
Activity (Danio rerio [2]): 81% | Activity [3]: Active | Activity [4]: Dose-Dependent Effect | %max [5]: 61% | Activity [6]: Tde | IC50 (Tyrosinase): 113 µM | Activity (A-375 [7]): Non-Toxic | Activity (HEK293): Non-Toxic | Activity [8]: inactive | Activity [9]: inactive | Activity [10]: inactive | inhibition (A-375 [11]): Dose-Dependent Effect | Activity [12]: Non-Toxic | Activity [13]: inactive | Activity [14]: inactive | solubility [15]: 11400 µg/mL (≈ 21200 µM) | logP [16]: -0.65 | Activity [1]: 46% | CC50 at 72 h [17]: > 700 µM | CC50 at 72 h [18]: > 700 µM | fold change (FC) (A-375 [19]): 1.4 | fold change (FC) (A-375 [20]): 1.7 | Activity [21]: Non-Toxic | inhibition (Danio rerio [22]): Active | inhibition (Danio rerio [23]): Active | inhibition (Danio rerio [24]): Active | inhibition (Danio rerio [25]): Active | fold change (FC) (Danio rerio [26]): 3.3 | fold change (FC) (Danio rerio [27]): 5.1

O=C1CCC(N2C(=O)c3cccc(NCCCCCCCCC(=O)OCc4cc(=O)c(O)co4)c3C2=O)C(=O)N1 (configuration not stated)
Activity [3]: inactive

N[C@@H](Cc1ccccc1)C(=O)NCCCCCNc1cccc2c1C(=O)N(C1CCC(=O)NC1=O)C2=O (some centres not stated)
Activity [28]: inactive

N[C@@H](Cc1ccc(O)c(O)c1)C(=O)O [LEVODOPA]
Activity [3]: inactive | inhibition (A-375 [29]): Active | Kd (Mushroom tyrosinase): 19 µM | inhibition (Danio rerio [22]): inactive | inhibition (Danio rerio [23]): inactive | inhibition (Danio rerio [24]): inactive | inhibition (Danio rerio [25]): inactive

CN1C(=O)CCC(N2C(=O)c3cccc(NCCCCCNC(=O)[C@@H](N)Cc4ccc(O)c(O)c4)c3C2=O)C1=O (some centres not stated)
Activity [28]: inactive

O=C1CCC(N2C(=O)c3cccc(NCCCCCCCC(=O)OCc4cc(=O)c(O)co4)c3C2=O)C(=O)N1 (configuration not stated)
Activity [3]: inactive

N[C@@H](Cc1ccc(O)c(O)c1)C(=O)NCCOCCOCCNc1cccc2c1C(=O)N(C1CCC(=O)NC1=O)C2=O (some centres not stated)
Activity [1]: 7%

O=C1CCC(N2C(=O)c3ccccc3C2=O)C(=O)N1 (configuration not stated)
Activity [3]: inactive

O=c1cc(CO)occ1O [KOJIC ACID]
inhibition (A-375 [29]): Active | solubility [15]: 55 µg/mL (≈ 387 µM) | inhibition (Danio rerio [22]): inactive | inhibition (Danio rerio [23]): inactive | inhibition (Danio rerio [24]): inactive | inhibition (Danio rerio [25]): inactive | Activity (Danio rerio [30]): Active

N[C@@H](Cc1ccc(O)c(O)c1)C(=O)NCCCNc1cccc2c1C(=O)N(C1CCC(=O)NC1=O)C2=O (some centres not stated)
Activity [1]: 25%

N[C@@H](Cc1ccc(O)c(O)c1)C(=O)NCCOCCNc1cccc2c1C(=O)N(C1CCC(=O)NC1=O)C2=O (some centres not stated)
Activity [1]: 7%

O=C1CCC(N2C(=O)c3cccc(NCCCCCCCCCCC(=O)OCc4cc(=O)c(O)co4)c3C2=O)C(=O)N1 (configuration not stated)
Activity [3]: inactive

N[C@@H](Cc1ccc(O)c(O)c1)C(=O)NCCCCNc1cccc2c1C(=O)N(C1CCC(=O)NC1=O)C2=O (some centres not stated)
Activity [1]: 19%

N[C@@H](Cc1cccc(O)c1)C(=O)NCCCCCNc1cccc2c1C(=O)N(C1CCC(=O)NC1=O)C2=O (some centres not stated)
Activity [28]: inactive

O=c1oc2c(O)c(O)cc3c(=O)oc4c(O)c(O)cc1c4c23 [ELLAGIC ACID]
solubility [15]: 9.7 µg/mL (≈ 32.1 µM)

O=C(CCc1ccc(O)c(O)c1)NCCCCCNc1cccc2c1C(=O)N(C1CCC(=O)NC1=O)C2=O (configuration not stated)
Activity [28]: inactive

N[C@@H](Cc1ccc(O)cc1)C(=O)NCCCCCNc1cccc2c1C(=O)N(C1CCC(=O)NC1=O)C2=O (some centres not stated)
Activity [28]: inactive

N[C@@H](Cc1ccc(O)c(O)c1)C(=O)NCCCCCCCCCCNc1cccc2c1C(=O)N(C1CCC(=O)NC1=O)C2=O (some centres not stated)
Activity [1]: 37%

N[C@@H](Cc1ccc(O)c(O)c1)C(=O)NCCCCCCCCNc1cccc2c1C(=O)N(C1CCC(=O)NC1=O)C2=O (some centres not stated)
Activity [3]: Active | Activity [1]: 38%

N[C@@H](Cc1ccc(O)c(O)c1)C(=O)NCCCCCCCNc1cccc2c1C(=O)N(C1CCC(=O)NC1=O)C2=O (some centres not stated)
Activity [1]: 37%

N[C@@H](Cc1ccc(O)c(O)c1)C(=O)NCCCCCCNc1cccc2c1C(=O)N(C1CCC(=O)NC1=O)C2=O (some centres not stated)
Activity [8]: inactive | Activity [9]: inactive | Activity [10]: inactive | Activity [1]: > 25%

O=C1CCC(N2C(=O)c3cccc(NCCCCCC(=O)OCc4cc(=O)c(O)co4)c3C2=O)C(=O)N1 (configuration not stated)
Activity [3]: inactive
